Test results taken from US20250353891A1 (MEDIMMUNE LIMITED, priority 2022, published 2025).
Starred links: 1 amine or outer side, 2 acyl side, 3 side chain; linkers in the order of their positions; H or OH if unused. Non-standard residues stand in square brackets, D forms with d. Residues, ends and D or L forms follow the SMILES beside them. Groups on a side chain read outwards from the residue. *: point of attachment. C20 diacid = O=C(O)CCCCCCCCCCCCCCCCCCC(=O)*; γGlu = O=C(O)[C@H](CCC(=O)[*:2])N[*:1]; αMeF = C[C@](N)(Cc1ccccc1)C(=O)O; AEEA = NCCOCCOCC(=O)O; Aib = CC(C)(N)C(=O)O

Key:
[1] = target: human GLP-1 receptor (hGLP-1R) (Homo sapiens, UniProt P43220); assay: cAMP production (HTRF) in CHO cells expressing hGLP-1R; type: cell-based; parameters: expressed in transfected cells; conditions: for EC50: Table 7, peptides modified at position 20, cAMP in CHO hGLP-1R cells, geometric mean, read-out: hGLP-1R EC50; for % Relative Potency Ratio: Table 7, % GLP-1R activity relative to GLP-1 / % GlucR activity relative to glucagon
How it was run: (§1)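 Potency values represent EC50 from 4-parameter logistic curves of HTRF % Delta F signal. Receptor-expressing CHO cells (hGCGR 2×10^5 cells/mL, hGLP-1R 1×10^5 cells/mL) were exposed for 30 min at room temperature before two-step cAMP detection.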

[2] = target: human glucagon receptor (hGCGR) (Homo sapiens, UniProt P47871); assay: cAMP production (HTRF) in CHO cells expressing hGCGR; type: cell-based; parameters: expressed in transfected cells; conditions: Table 7, peptides modified at position 20; cAMP in CHO hGCGR cells; geometric mean; read-out: hGluc-R EC50
How it was run: as §1

Sequence of human glucagon receptor (hGCGR) (P47871 26-477): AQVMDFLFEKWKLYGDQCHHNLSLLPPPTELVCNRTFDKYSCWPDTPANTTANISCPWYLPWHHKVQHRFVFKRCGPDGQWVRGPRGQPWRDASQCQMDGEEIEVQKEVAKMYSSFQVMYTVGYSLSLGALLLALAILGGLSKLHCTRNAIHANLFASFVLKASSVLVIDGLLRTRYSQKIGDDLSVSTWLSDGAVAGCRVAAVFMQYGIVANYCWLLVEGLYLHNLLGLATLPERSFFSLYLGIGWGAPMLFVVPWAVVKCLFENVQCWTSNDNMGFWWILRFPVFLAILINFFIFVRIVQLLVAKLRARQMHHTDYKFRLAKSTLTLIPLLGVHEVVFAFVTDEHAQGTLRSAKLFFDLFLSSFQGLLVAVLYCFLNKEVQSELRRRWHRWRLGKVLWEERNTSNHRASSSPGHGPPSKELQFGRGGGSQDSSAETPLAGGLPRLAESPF
Sequence of human GLP-1 receptor (hGLP-1R) (P43220 24-463): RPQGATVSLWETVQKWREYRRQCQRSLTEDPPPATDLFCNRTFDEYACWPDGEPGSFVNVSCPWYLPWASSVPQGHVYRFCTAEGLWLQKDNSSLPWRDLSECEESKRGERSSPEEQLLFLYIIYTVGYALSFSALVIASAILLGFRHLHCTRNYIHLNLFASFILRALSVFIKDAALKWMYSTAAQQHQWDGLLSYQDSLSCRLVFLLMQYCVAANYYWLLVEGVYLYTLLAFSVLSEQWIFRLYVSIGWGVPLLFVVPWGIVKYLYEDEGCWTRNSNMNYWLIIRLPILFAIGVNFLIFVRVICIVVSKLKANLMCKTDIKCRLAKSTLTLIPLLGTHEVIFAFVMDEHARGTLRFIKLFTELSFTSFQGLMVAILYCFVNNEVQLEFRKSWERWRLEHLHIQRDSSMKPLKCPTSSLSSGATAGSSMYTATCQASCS

EC50 [1] [pM] | % Relative Potency Ratio [1] | EC50 [2] [pM] | Compound
2340 | 0.7 | 810 | CC[C@H](C)[C@H](NC(=O)[C@H](Cc1c[nH]c2ccccc12)NC(=O)[C@H](CCC(N)=O)NC(=O)[C@@H](NC(=O)[C@H](Cc1ccccc1)NC(=O)[C@H](CC(=O)O)NC(=O)[C@H](CCCCNC(=O)COCCOCCNC(=O)COCCOCCNC(=O)CC[C@H](NC(=O)CCCCCCCCCCCCCCCCCCC(=O)O)C(=O)O)NC(=O)[C@H](C)NC(=O)[C@H](C)NC(=O)[C@H](CCCNC(=N)N)NC(=O)[C@H](CO)NC(=O)[C@H](CC(=O)O)NC(=O)[C@H](CC(C)C)NC(=O)[C@](C)(Cc1ccccc1)NC(=O)[C@H](CCCCN)NC(=O)[C@H](CO)NC(=O)[C@@H](NC(=O)[C@H](CC(=O)O)NC(=O)[C@H](CO)NC(=O)[C@@H](NC(=O)[C@](C)(Cc1ccccc1)NC(=O)[C@H](CO)NC(=O)CNC(=O)[C@H](Cc1c[nH]cn1)NC(=O)C(C)(C)NC(=O)[C@@H](N)Cc1c[nH]cn1)[C@@H](C)O)C(C)C)C(C)C)C(=O)N[C@@H](C)C(=O)N[C@@H](CC(N)=O)C(=O)N[C@H](C(N)=O)[C@@H](C)O [Peptide 214] (H-H[Aib]HGS[αMeF]TSDVSK[αMeF]LDSRAAK([AEEA-AEEA-γGlu-C20 diacid])DFVQWIANT-NH2)
7620 | 0.7 | 2610 | CC[C@H](C)[C@H](NC(=O)[C@H](Cc1c[nH]c2ccccc12)NC(=O)[C@H](CCC(N)=O)NC(=O)[C@@H](NC(=O)[C@](C)(Cc1ccccc1)NC(=O)[C@H](CC(=O)O)NC(=O)[C@H](CCCCNC(=O)COCCOCCNC(=O)COCCOCCNC(=O)CC[C@H](NC(=O)CCCCCCCCCCCCCCCCCCC(=O)O)C(=O)O)NC(=O)[C@H](C)NC(=O)[C@H](C)NC(=O)[C@H](CCCNC(=N)N)NC(=O)[C@H](CO)NC(=O)[C@H](CC(=O)O)NC(=O)[C@H](CC(C)C)NC(=O)[C@](C)(Cc1ccccc1)NC(=O)[C@H](CCCCN)NC(=O)[C@H](CO)NC(=O)[C@@H](NC(=O)[C@H](CC(=O)O)NC(=O)[C@H](CO)NC(=O)[C@@H](NC(=O)[C@](C)(Cc1ccccc1)NC(=O)[C@H](CO)NC(=O)CNC(=O)[C@H](Cc1c[nH]cn1)NC(=O)C(C)(C)NC(=O)[C@@H](N)Cc1c[nH]cn1)[C@@H](C)O)C(C)C)C(C)C)C(=O)N[C@@H](C)C(=O)N[C@@H](CC(N)=O)C(=O)N[C@H](C(N)=O)[C@@H](C)O [Peptide 215] (H-H[Aib]HGS[αMeF]TSDVSK[αMeF]LDSRAAK([AEEA-AEEA-γGlu-C20 diacid])D[αMeF]VQWIANT-NH2; N-terminus assumed)
18100 | 0.6 | 5670 | CC[C@H](C)[C@H](NC(=O)[C@H](Cc1c[nH]c2ccccc12)NC(=O)[C@H](CCC(=O)O)NC(=O)[C@@H](NC(=O)[C@](C)(Cc1ccccc1)NC(=O)[C@H](CC(=O)O)NC(=O)[C@H](CCCCNC(=O)COCCOCCNC(=O)COCCOCCNC(=O)CC[C@H](NC(=O)CCCCCCCCCCCCCCCCCCC(=O)O)C(=O)O)NC(=O)[C@H](C)NC(=O)[C@H](C)NC(=O)[C@H](CCCNC(=N)N)NC(=O)[C@H](CO)NC(=O)[C@H](CC(=O)O)NC(=O)[C@H](CC(C)C)NC(=O)[C@](C)(Cc1ccccc1)NC(=O)[C@H](CCCCN)NC(=O)[C@H](CO)NC(=O)[C@@H](NC(=O)[C@H](CC(=O)O)NC(=O)[C@H](CO)NC(=O)[C@@H](NC(=O)[C@](C)(Cc1ccccc1)NC(=O)[C@H](CO)NC(=O)CNC(=O)[C@H](Cc1c[nH]cn1)NC(=O)C(C)(C)NC(=O)[C@@H](N)Cc1c[nH]cn1)[C@@H](C)O)C(C)C)C(C)C)C(=O)N[C@@H](C)C(=O)N[C@@H](CC(N)=O)C(=O)N[C@H](C(N)=O)[C@@H](C)O [Peptide 216] (H-H[Aib]HGS[αMeF]TSDVSK[αMeF]LDSRAAK([AEEA-AEEA-γGlu-C20 diacid])D[αMeF]VEWIANT-NH2)
264 | 0.9 | 127 | CC[C@H](C)[C@H](NC(=O)[C@H](Cc1c[nH]c2ccccc12)NC(=O)[C@H](CCC(N)=O)NC(=O)[C@@H](NC(=O)[C@H](Cc1ccccc1)NC(=O)[C@H](CC(=O)O)NC(=O)[C@H](CCCCNC(=O)COCCOCCNC(=O)COCCOCCNC(=O)CC[C@H](NC(=O)CC[C@H](NC(=O)CCCCCCCCCCCCCCCCCCC(=O)O)C(=O)O)C(=O)O)NC(=O)[C@H](C)NC(=O)C(C)(C)NC(=O)[C@H](CCCNC(=N)N)NC(=O)[C@H](CO)NC(=O)[C@H](CC(=O)O)NC(=O)[C@H](CC(C)C)NC(=O)[C@](C)(Cc1ccccc1)NC(=O)[C@H](CCCCN)NC(=O)[C@H](CO)NC(=O)[C@@H](NC(=O)[C@H](CC(=O)O)NC(=O)[C@H](CO)NC(=O)[C@@H](NC(=O)[C@](C)(Cc1ccccc1)NC(=O)[C@H](CO)NC(=O)CNC(=O)[C@H](Cc1c[nH]cn1)NC(=O)C(C)(C)NC(=O)[C@@H](N)Cc1c[nH]cn1)[C@@H](C)O)C(C)C)C(C)C)C(=O)N[C@@H](C)C(=O)N[C@@H](CC(N)=O)C(=O)N[C@H](C(N)=O)[C@@H](C)O [Peptide 217] (H-H[Aib]HGS[αMeF]TSDVSK[αMeF]LDSR[Aib]AK([AEEA-AEEA-γGlu-γGlu-C20 diacid])DFVQWIANT-NH2)
139 | 6.0 | 423 | CC[C@H](C)[C@H](NC(=O)[C@H](Cc1c[nH]c2ccccc12)NC(=O)[C@H](CCC(N)=O)NC(=O)[C@@H](NC(=O)[C@H](Cc1ccccc1)NC(=O)[C@H](CC(=O)O)NC(=O)[C@H](CCCCNC(=O)COCCOCCNC(=O)COCCOCCNC(=O)CC[C@H](NC(=O)CC[C@H](NC(=O)CCCCCCCCCCCCCCCCCCC(=O)O)C(=O)O)C(=O)O)NC(=O)[C@H](C)NC(=O)[C@H](C)NC(=O)[C@H](CCCNC(=N)N)NC(=O)[C@H](CO)NC(=O)[C@H](CC(=O)O)NC(=O)[C@H](CC(C)C)NC(=O)[C@](C)(Cc1ccccc1)NC(=O)[C@H](CCCCN)NC(=O)[C@H](CO)NC(=O)[C@@H](NC(=O)[C@H](CC(=O)O)NC(=O)[C@H](CO)NC(=O)[C@@H](NC(=O)[C@](C)(Cc1ccccc1)NC(=O)[C@H](CO)NC(=O)CNC(=O)[C@H](Cc1c[nH]cn1)NC(=O)C(C)(C)NC(=O)[C@@H](N)Cc1c[nH]cn1)[C@@H](C)O)C(C)C)C(C)C)C(=O)N[C@@H](C)C(=O)N[C@@H](CC(N)=O)C(=O)N[C@H](C(=O)NCC(N)=O)[C@@H](C)O [Peptide 218] (H-H[Aib]HGS[αMeF]TSDVSK[αMeF]LDSRAAK([AEEA-AEEA-γGlu-γGlu-C20 diacid])DFVQWIANTG-NH2)
94.5 | 6.2 | 298 | CC[C@H](C)[C@H](NC(=O)[C@H](Cc1c[nH]c2ccccc12)NC(=O)[C@H](CCC(N)=O)NC(=O)[C@@H](NC(=O)[C@H](Cc1ccccc1)NC(=O)[C@H](CC(=O)O)NC(=O)[C@H](CCCCNC(=O)COCCOCCNC(=O)COCCOCCNC(=O)CC[C@H](NC(=O)CC[C@H](NC(=O)CCCCCCCCCCCCCCCCCCC(=O)O)C(=O)O)C(=O)O)NC(=O)[C@H](C)NC(=O)[C@H](C)NC(=O)[C@H](CCCNC(=N)N)NC(=O)[C@H](CO)NC(=O)[C@H](CC(=O)O)NC(=O)[C@H](CC(C)C)NC(=O)[C@](C)(Cc1ccccc1)NC(=O)[C@H](CCCCN)NC(=O)[C@H](CO)NC(=O)[C@@H](NC(=O)[C@H](CC(=O)O)NC(=O)[C@H](CO)NC(=O)[C@@H](NC(=O)[C@](C)(Cc1ccccc1)NC(=O)[C@H](CO)NC(=O)CNC(=O)[C@H](Cc1c[nH]cn1)NC(=O)C(C)(C)NC(=O)[C@@H](N)Cc1c[nH]cn1)[C@@H](C)O)C(C)C)C(C)C)C(=O)N[C@@H](C)C(=O)N[C@@H](CC(N)=O)C(=O)N[C@H](C(=O)NCC(=O)NCC(N)=O)[C@@H](C)O [Peptide 219] (H-H[Aib]HGS[αMeF]TSDVSK[αMeF]LDSRAAK([AEEA-AEEA-γGlu-γGlu-C20 diacid])DFVQWIANTGG-NH2; N-terminus assumed)
240 | 3.3 | 405 | CC[C@H](C)[C@H](NC(=O)C(C)(C)NC(=O)[C@H](CCC(N)=O)NC(=O)[C@@H](NC(=O)[C@H](Cc1ccccc1)NC(=O)[C@H](CC(=O)O)NC(=O)[C@H](CCCCNC(=O)COCCOCCNC(=O)COCCOCCNC(=O)CC[C@H](NC(=O)CC[C@H](NC(=O)CCCCCCCCCCCCCCCCCCC(=O)O)C(=O)O)C(=O)O)NC(=O)[C@H](C)NC(=O)C(C)(C)NC(=O)[C@H](CCCNC(=N)N)NC(=O)[C@H](CO)NC(=O)[C@H](CC(=O)O)NC(=O)[C@H](CC(C)C)NC(=O)[C@](C)(Cc1ccccc1)NC(=O)[C@H](CCCCN)NC(=O)[C@H](CO)NC(=O)[C@@H](NC(=O)[C@H](CC(=O)O)NC(=O)[C@H](CO)NC(=O)[C@@H](NC(=O)[C@](C)(Cc1ccccc1)NC(=O)[C@H](CO)NC(=O)CNC(=O)[C@H](Cc1c[nH]cn1)NC(=O)C(C)(C)NC(=O)[C@@H](N)Cc1c[nH]cn1)[C@@H](C)O)C(C)C)C(C)C)C(=O)N[C@@H](C)C(=O)N[C@@H](CC(N)=O)C(=O)N[C@H](C(N)=O)[C@@H](C)O [Peptide 220] (H-H[Aib]HGS[αMeF]TSDVSK[αMeF]LDSR[Aib]AK([AEEA-AEEA-γGlu-γGlu-C20 diacid])DFVQ[Aib]IANT-NH2)
